# Test results reported in patent US4446141A, “Hypotensive piperidine derivatives” (priority 1978, dated 1984).
# Where a name gives a salt, the structure may show the parent alone. Read-outs that look alike come from different tables or passages of the source.
# Legend:
# blood pressure [1] = assay: Experiment 6 Dosage-reaction curve, spontaneously hypertensive rats; format: in vivo; settings: SHR, 50 mg/kg oral; average of five rats
# Source text: (§1) Experiment 6 Dosage-reaction curve: compared with betanidin
# (§2) Five spontaneously hypertensive rats (16 weeks old) and five DOCA-sodium chloride loaded hypertensive rats (having been bred for 5 weeks after removing one kidney) were respectively used as one group.
# (§3) As the test compounds, Compound 1 and betanidin sulfate, which is a known hypotensive agent, were used.
# (§4) The test compounds were respectively dissolved in 0.3% (w/v) CMC aqueous solution and each of the resulting solutions was orally administered to the rats in a dose of 1 ml/100 g. The amounts of the solutions administered were equal per unit weight of rats and the concentrations thereof were varied according to the doses of the compounds indicated in Table 8. The maximum reduction in blood pressure after the administration was measured according to the method of tail artery plethysmography.
# blood pressure [2] = assay: Experiment 6 Dosage-reaction curve, DOCA-NaCl loaded hypertensive rats; format: in vivo, DOCA-sodium chloride loaded hypertensive rats; settings: average of five rats
# Source text: as §1, §2, §3, §4
# blood pressure [3] = assay: Experiment 3 Hypotensive action (maximum reduction in blood pressure); format: in vivo, Wistar-strain rats; settings: read-out: BP: Reduction of blood pressure
# male dd-strain mice = settings: mouse, in vivo
# [4] = maximum reduction, oral, 5 mg per 100 g rat weight
Structure (SMILES),maximum reduction in blood pressure (blood pressure [1]) [mmHg],maximum reduction in blood pressure (blood pressure [2]; 1.0 mg/kg oral) [mmHg],maximum reduction in blood pressure (blood pressure [2]; 10 mg/kg oral) [mmHg],maximum reduction in blood pressure (blood pressure [2]; 50 mg/kg oral) [mmHg],inhibition in vivo at 50 mg/kg (blood pressure [3]; [4]) [%],Number of Death I.P. (male dd-strain mice),Number of Death P.O. (male dd-strain mice),"inhibition in vivo at 50 mg/kg (blood pressure [3]; Rattus norvegicus, po) [%]"
"CN=C(NC)NCc1ccccc1 [Betanidin sulfate, betanidin sulfate]",-40,-25,-34,-58,–,–,–,–
"CCOc1nc2ccccc2n1C1CCN(CC(O)c2ccc3c(c2)OCO3)CC1 (stereo not shown) [Compound 11, 1-[2-hydroxy-2-(3,4-methylenedioxyphenyl)-1-ethyl]-4-(2-ethoxy-1-benzimidazolinyl)-piperidine]",–,–,–,–,6 to 10,0,0,–
"O=c1[nH]c2ccccc2n1C1=CCN(CCc2ccc3c(c2)OCO3)CC1 [Compound 12, 1-[2-(3,4-methylenedioxyphenyl)-1-ethyl]-4-(2-keto-1-benzimidazolinyl)-1,2,5,6-tetrahydropyridine]",–,–,–,–,6 to 10,0,0,–
"COc1ccc(C(OC(C)=O)C(C)N2CCC(n3c(=O)n(C(C)=O)c4ccccc43)CC2)cc1OC (stereo not shown) [Compound 32, 1-[3-acetoxy-3-(3,4-dimethoxyphenyl)-2-propyl]-4-(3-acetyl-2-keto-1-benzimidazolinyl)-piperidine]",–,–,–,–,> 11,0,0,–
"COc1ccc(C(OC(C)=O)C(C)N2CCC(n3c(=O)[nH]c4ccccc43)CC2)cc1OC (stereo not shown) [Compound 34, 1-[3-acetoxy-3-(3,4-dimethoxyphenyl)-2-propyl]-4-(2-keto-1-benzimidazolinyl)-piperidine]",–,–,–,–,–,0,0,> 11
"CCOC(=O)n1c(=O)n(C2CCN(CC(=O)c3ccc(OC)c(OC)c3)CC2)c2ccccc21 [Compound 35, 1-[2-oxo-2-(3,4-dimethoxyphenyl)-1-ethyl]-4-(2-keto-3-ethoxycarbonyl-1-benzimidazolinyl)-piperidine]",–,–,–,–,> 11,0,0,–
